According to US20120108501A1, “Protease Inhibitors” (priority 2009, published 2012):

Assay: Pharmacokinetics of released PEGylated protease inhibitor following P.O. administration of prodrugs in rats
Type: in vivo, male Sprague-Dawley rats
Parameters: AUCall Mean: concentration or dose not given beside the values; C24 Mean: unit not given here
Conditions: rats (n = 4-5); for C24 Mean: concentration at 24 hours
Method: Pharmacokinetic analysis of protease inhibitors described herein was conducted. To evaluate the pharmacokinetics of PEGylated protease inhibitor conjugates with releasable lipophilic attachments, test compounds were administered to male Sprague-Dawley rats.
At various times following test article administration, serial blood samples were collected from indwelling jugular vein catheters and transferred to micro-tubes containing 7.5 μL of 20% w/v K2EDTA as an anticoagulant. Following processing of the blood samples to plasma (10 minutes at 10000 rpm, Centrifuge Model: Kubota 3500), plasma concentrations of the test article or corresponding PEGylated molecule released from the test article was measured using LC-MS/MS methods. Pharmacokinetic parameters were estimated using noncompartmental methods.

[1] = mPEG5-atazanavir in plasma after PO administration of mPEG5-ATV or of the listed prodrug
[2] = mPEG6-atazanavir in plasma after PO administration of mPEG6-ATV or of the listed prodrug
[3] = mPEG3-atazanavir in plasma after PO administration of mPEG3-ATV or of the listed prodrug

| Compound | AUCall Mean [1] [ng·h/mL] | Cmax Mean [1] [ng/mL] | MRT last Mean [1] [h] | Tmax Median [1] [h] | AUCall Mean [2] [ng·h/mL] | Cmax Mean [2] [ng/mL] | MRT last Mean [2] [h] | Tmax Median [2] [h] | further results |
| --- | --- | --- | --- | --- | --- | --- | --- | --- | --- |
| CCC(=O)OC(CN(Cc1ccc(-c2ccccn2)cc1)NC(=O)C(NC(=O)OC)C(C)(C)C)C(Cc1ccccc1)NC(=O)C(NC(=O)OCCOCCOCCOCCOCCOC)C(C)(C)C (stereo not shown) [C2H5CO-mPEG5-ATV, mPEG5-Atazanavir Propionate] | 39.1 | 6.90 | 4.04 | 0.750 | – | – | – | – | – |
| COCCOCCOCCOCCOCCOCCOC(=O)NC(C(=O)NC(Cc1ccccc1)C(CN(Cc1ccc(-c2ccccn2)cc1)NC(=O)C(NC(=O)OC)C(C)(C)C)OC(=O)C(N)C(C)C)C(C)(C)C.Cl [mPEG6-ATV-L-valine, mPEG6-Atazanavir-L-Valine HCl] | – | – | – | – | 73.1 | 4.05 | 18.9 | 12.0 | – |
| mPEG5-atazanavir-ethoxy-CME-Leu-Leu [mPEG5ATV-Ethoxy-CM-Leu-Leu] | 50.3 | 1.86 | 26.7 | 24.0 | – | – | – | – | – |
| COCCOCCOCCOC(=O)N[C@H](C(=O)N[C@@H](Cc1ccccc1)[C@H](CN(Cc1ccc(-c2ccccn2)cc1)NC(=O)[C@@H](NC(=O)OC)C(C)(C)C)OP(=O)(O)O)C(C)(C)C [mPEG3-ATV-phosphate, mPEG3-atazanavir phosphate] | – | – | – | – | – | – | – | – | AUCall Mean [3]: 16.8 ng·h/mL; Cmax Mean [3]: 1.66 ng/mL; MRT last Mean [3]: 7.37 h; Tmax* Median [3]: 1.25 h |
| CCOC(CC)OC(CN(Cc1ccc(-c2ccccn2)cc1)NC(=O)C(NC(=O)OC)C(C)(C)C)C(Cc1ccccc1)NC(=O)C(NC(=O)OCCOCCOCCOCCOCCOC)C(C)(C)C (mixture of isomers) [ATV-1-Ethoxy propoxy-mPEG5, atazanavir-1-ethoxypropoxy-mPEG5] | 235 | 55.3 | 3.53 | 1.00 | – | – | – | – | – |
| COCCOCCOCCOCCOCCOCCOC(=O)NC(C(=O)NC(Cc1ccccc1)C(CN(Cc1ccc(-c2ccccn2)cc1)NC(=O)C(NC(=O)OC)C(C)(C)C)OP(=O)(O)O)C(C)(C)C (stereo not shown) [mPEG6-ATV-phosphate, mPEG6-atazanavir phosphate] | – | – | – | – | 12.1 | 1.23 | 23.4 | 6.13 | – |
| CCCCC(=O)OC(CN(Cc1ccc(-c2ccccn2)cc1)NC(=O)C(NC(=O)OC)C(C)(C)C)C(Cc1ccccc1)NC(=O)C(NC(=O)OCCOCCOCCOC)C(C)(C)C (stereo not shown) [C4H9CO-mPEG3-ATV, C4H9CO-mPEG3-atazanavir] | – | – | – | – | – | – | – | – | AUCall Mean [3]: 40.1 ng·h/mL; Cmax Mean [3]: 7.42 ng/mL; MRT last Mean [3]: 3.00 h; Tmax* Median [3]: 1.25 h |
| COCCOCCOCCOCCOCCOC(=O)NC(C(=O)NC(Cc1ccccc1)C(CN(Cc1ccc(-c2ccccn2)cc1)NC(=O)C(NC(=O)OC)C(C)(C)C)OC(=O)CNC(=O)C(N)Cc1ccccc1)C(C)(C)C.Cl (stereo not drawn) [Phe-Gly-mPEG5-Atazanavir HCl, Phe-Gly-mPEG5-Atazanavir Hydrochloride] | 33.7 | 3.10 | 12.0 | 12.0 | – | – | – | – | C24 Mean [1]: 0.169 |
| COCCOCCOCCOCCOCCOCCOC(=O)N[C@H](C(=O)N[C@@H](Cc1ccccc1)[C@@H](O)CN(Cc1ccc(-c2ccccn2)cc1)NC(=O)[C@@H](NC(=O)OC)C(C)(C)C)C(C)(C)C [PEG6-ATV, mPEG6-atazanavir] | – | – | – | – | 97.6 | 26.8 | 4.93 | 0.250 | – |
| mPEG6-atazanavir-ethoxy-CME-Leu-Leu [mPEG6-ATV-Ethoxy-CM-Leu-Leu] | – | – | – | – | 40.6 | 2.07 | 13.8 | 4.00 | – |
| COCCOCCOCCOCCOCCOC(=O)NC(C(=O)NC(Cc1ccccc1)C(CN(Cc1ccc(-c2ccccn2)cc1)NC(=O)C(NC(=O)OC)C(C)(C)C)OC(=O)C(N)C(C)C)C(C)(C)C.Cl [mPEG5-ATV-L-valine, mPEG5-Atazanavir-L-valine HCl] | 9.14 | 1.09 | 6.89 | 1.00 | – | – | – | – | – |
| COCCOCCOCCOCCOCCOC(=O)NC(C(=O)NC(Cc1ccccc1)C(CN(Cc1ccc(-c2ccccn2)cc1)NC(=O)C(NC(=O)OC)C(C)(C)C)OC(=O)CNC(=O)C(N)CC(C)C)C(C)(C)C.Cl (stereo not drawn) [Leu-Gly-mPEG5-Atazanavir HCl, Leu-Gly-mPEG5-Atazanavir Hydrochloride] | 344 | 19.5 | 11.3 | 12.0 | – | – | – | – | C24 Mean [1]: 18.1 |
| COCCOCCOCCOCCOCCOC(=O)NC(C(=O)NC(Cc1ccccc1)C(CN(Cc1ccc(-c2ccccn2)cc1)NC(=O)C(NC(=O)OC)C(C)(C)C)OCOCCOC)C(C)(C)C (stereo not shown) [mPEG5-ATV-Methyl ethyl methyl ether, mPEG5-Atazanavir Methyl Ethyl Methyl Ether] | 32.7 | 3.74 | 4.92 | 2.00 | – | – | – | – | – |
| CCOC(CC)OC(CN(Cc1ccc(-c2ccccn2)cc1)NC(=O)C(NC(=O)OC)C(C)(C)C)C(Cc1ccccc1)NC(=O)C(NC(=O)OCCOCCOCCOCCOCCOCCOC)C(C)(C)C (mixture of isomers) [ATV-1-Ethoxy propoxy-mPEG6, atazanavir-1-ethoxypropoxy-mPEG6] | – | – | – | – | 185 | 83.0 | 5.16 | 0.750 | – |
| CCCC(=O)OC(CN(Cc1ccc(-c2ccccn2)cc1)NC(=O)C(NC(=O)OC)C(C)(C)C)C(Cc1ccccc1)NC(=O)C(NC(=O)OCCOCCOCCOCCOCCOCCOC)C(C)(C)C (stereo not shown) [C3H7CO-mPEG6-ATV, mPEG6-Atazanavir Butyrate] | – | – | – | – | 6.16 | 2.22 | 1.36 | 2.00 | C24 Mean [2]: 0.00 |
| COCCOCCOCCOCCOCCOCCOC(=O)N[C@H](C(=O)N[C@@H](Cc1ccccc1)[C@H](CN(Cc1ccc(-c2ccccn2)cc1)NC(=O)[C@@H](NC(=O)OC)C(C)(C)C)OC(=O)[C@H](Cc1ccccc1)NC(=O)[C@@H](N)Cc1ccccc1)C(C)(C)C.Cl [Phe-Phe-mPEG6-ATV, Phe-Phe-mPEG6-Atazanavir Hydrochloride] | – | – | – | – | 279 | 27.0 | 16.2 | 2.00 | – |
| CCOC(=O)OC(CN(Cc1ccc(-c2ccccn2)cc1)NC(=O)C(NC(=O)OC)C(C)(C)C)C(Cc1ccccc1)NC(=O)C(NC(=O)OCCOCCOCCOCCOCCOCCOC)C(C)(C)C (stereo not shown) [mPEG6-ATV-Ethyl Carbonate, mPEG6-Atazanavir Ethyl Carbonate] | – | – | – | – | 207 | 19.9 | 10.3 | 1.50 | C24 Mean [2]: 4.39 |
| CCCCCC(=O)O[C@@H](CN(Cc1ccc(-c2ccccn2)cc1)NC(=O)[C@@H](NC(=O)OC)C(C)(C)C)[C@H](Cc1ccccc1)NC(=O)[C@@H](NC(=O)OCCOCCOCCOCCOCCOCCOC)C(C)(C)C [C5H11CO-mPEG6-ATV, C5H11CO-mPEG6-atazanavir] | – | – | – | – | 78.1 | 21.4 | 5.01 | 0.500 | – |
